Experimental data published in patent US7098237B1, “Remedies for ischemia reperfusion injury” (Shionogi & Co., Ltd., priority 1998, dated 2006).

Tests used:
[1] = tested on: Total Hepatic Vascular Exclusion Model (liver ischemia reperfusion); assay: Hepatic function related factors (AST, ALT, LDH) by administration before ischemia, Total Hepatic Vascular Exclusion Model; type: in vivo, Beagle dogs; conditions: 0.2 mg/kg/hr continuous i.v. for one hour before ischemia; 2 h ischemia then reperfusion; peripheral artery blood
From the text: (§1) Beagle dogs (female, 10 to 12 kg) are used for experimental animals. Under the control of general anesthesia by inserting a tube into the trachea, a bypass is formed between the portal vein, femoral vein and external jugular vein. […] An auxiliary circulation is applied during this two hour's operation. Ischemia is continued for two hours, and reperfusion of the blood is resumed by releasing the clump. Various physiological changes are confirmed under laparotomy until three hours after reperfusion and thereafter abdomen is sutured (the method for maintaining anesthesia during this period follows the existing protocol, and fluctuation of the blood pressure and the like are not corrected by different anesthetic methods). Survival at two weeks after the surgery is confirmed.
The test compound is administered before and after warm ischemia. The compound is administered by intravenous injection.
Various factors related to the hepatic function and blood flow of hepatic tissues were measured by sampling over time from the peripheral artery and hepatic vein.
as §1, with “bypass was” for “bypass is”, “methods). The blood is collected from the peripheral artery to measure AST, ALT and LDH as indexes of the hepatic functions.” for “methods).”
The experimental group is divided into two groups with and without administration of the compound (1). […]

[2] = tested on: Total Hepatic Vascular Exclusion Model (liver ischemia reperfusion); assay: Blood flow in the hepatic tissue by administration after ischemia (laser Doppler method); type: in vivo, Beagle dogs; conditions: 0.2 mg/kg/hr continuous i.v. for one hour from 20 minutes before reperfusion to 40 minutes after reperfusion
Description: (§2) The blood flow in the hepatic tissue was measured using a laser Doppler method.
(§3) The experiments were carried out by the same method as in Example 1. A dosage of 0.2 mg/kg/hr of the compound (1) was administered by continuous intravenous injection through the peripheral vein for one hour from 20 minutes before blood reperfusion to 40 minutes after the reperfusion.
The blood flow in the hepatic tissue was measured by the same method as in Examples 2 and 3.

[3] = tested on: Total Hepatic Vascular Exclusion Model (liver ischemia reperfusion); assay: Blood flow in the hepatic tissue by administration before ischemia (laser Doppler method); type: in vivo, Beagle dogs; conditions: 0.2 mg/kg/hr continuous i.v. for one hour before ischemia
From the text: as §1, with “bypass was” for “bypass is”, “methods). The blood is collected from the peripheral artery to measure AST, ALT and LDH as indexes of the hepatic functions.” for “methods).”
A dosage of 0.2 mg/kg/hr of the compound (1) was administered by continuous intravenous injection through the peripheral vein during the period of one hour from before ischemia to the occurrence of ischemia.
as §2

[4] = tested on: Total Hepatic Vascular Exclusion Model (liver ischemia reperfusion); assay: Hepatic function related factors (AST, ALT, LDH) by administration after ischemia; type: in vivo, Beagle dogs; conditions: 0.2 mg/kg/hr continuous i.v. for one hour from 20 minutes before reperfusion to 40 minutes after reperfusion
From the text: as §1, with “bypass was” for “bypass is”, “methods). The blood is collected from the peripheral artery to measure AST, ALT and LDH as indexes of the hepatic functions.” for “methods).”
as §3

[5] = tested on: lung injury after small intestine ischemia reperfusion; conditions: Am. J. Physiol., 268: G397, 1995; cited from earlier work

| Structure (SMILES) | ALT value compared with the control group (FIG. 2) [1] | AST value compared with the control group (FIG. 1) [1] | LDH value compared with the control group (FIG. 3) [1] | blood flow after reperfusion compared with the control group (FIG. 8) [2] | blood flow in the liver after reperfusion compared with the control group (FIG. 4) [3] | ALT value compared with the control group (FIG. 6) [4] | AST value compared with the control group (FIG. 5) [4] | LDH value compared with the control group (FIG. 7) [4] | occurrence of lung injury accompanied by reperfusion of the small intestine [5] |
| --- | --- | --- | --- | --- | --- | --- | --- | --- | --- |
| CCc1c(C(=O)C(N)=O)c2c(OCC(=O)[O-])cc(C)cc2n1Cc1ccccc1.[Na+] [compound (1)] | significantly suppressed | significantly suppressed | significantly suppressed | significantly increased | significantly increased | significantly suppressed | significantly suppressed | significantly suppressed |  |
| CCN(CC)CCCC(C)Nc1c2ccc(Cl)cc2nc2ccc(OC)cc12 (stereo not drawn) [quinacrine] |  |  |  |  |  |  |  |  | can be prevented |
